Test results reported in PMC8812798 (Emerging Microbes & Infections, 2021).
Like-named read-outs stand apart in the source and are kept apart here. Where a SMILES comes first, the peptide text is derived from it. The star is where a group is joined. Succinyl(4-O-cholesteryl) = CC(C)CCC[C@@H](C)[C@H]1CC[C@H]2[C@@H]3CC=C4C[C@@H](OC(=O)CCC(=O)*)CC[C@]4(C)[C@H]3CC[C@]12C

What was measured:
[1] = test system: HEK293T cells
[2] = test system: H7N9 pseudovirus; details: 48 h
[3] = test system: TZM-bl cells
[4] = test system: SIV239 pseudovirus; details: 48 h
[5] = test system: SIVPBJ pseudovirus; details: 48 h
[6] = test system: H5N1 pseudovirus; details: 48 h
[7] = test system: HIV-1NL4-3 pseudovirus
[8] = test system: primary HIV-1 Envs; assay: DSP-based cell–cell fusion assay, panel of primary HIV-1 Envs
[9] = test system: RSV pseudovirus; details: 48 h
[10] = test system: HIV-2ROD; details: read-out: IC50, inhibition of HIV-2ROD infection; Fig 2A; replication-competent virus, TZM-bl cells, 48 h; mean IC50, repeated three times
[11] = test system: gp41 HR1-derived peptides (N42, N36, and N38); assay: Size-exclusion chromatography of EK1 with gp41 HR1-derived peptides; format: binding, HIV-1; details: molar ratio 1:1, 0.2 mM, 0.05M sodium phosphate pH 7.2, 37°C 30 min; Superdex-75
Procedure: The binding between EK1 peptide and a target mimic peptide derived from the HR1 sequence of gp41 was analysed by size-exclusion chromatography. In brief, EK1 was mixed with N42, N36 or N38 (molar ratio of 1:1) in 0.05M sodium phosphate (pH 7.2) at a final concentration of 0.2 mM, and then incubated at 37°C for 30 min. The mixture was applied to the Superdex-75 10/300 GL (GE Healthcare, Piscataway, NJ, USA) equilibrated with 50 mM sodium phosphate and eluted at 0.8 ml/min, and fractions were monitored at 214 nm.

[12] = test system: HIV-1NL4-3 Env; format: cell-based; details: Table 2; HIV-1NL4-3 Env-mediated cell–cell fusion; triplicate, repeated three times; read-out: IC50 ± SD, Env cell fusion
[13] = test system: HIV-2ST; details: read-out: IC50, inhibition of HIV-2ST infection; Fig 2B; replication-competent virus, TZM-bl cells, 48 h; mean IC50, repeated three times
[14] = test system: HIV-1; assay: Inhibition of HIV-1 by HIV-1 fusion inhibitors (Table S1); format: cell-based; details: Table S1, in words only
[15] = test system: SARS-CoV-2; assay: Inhibition of SARS-CoV-2 by HIV-1 fusion inhibitors (Table S1); format: cell-based; details: at a concentration as high as 25 or 50 μM (Table S1)
[16] = HIV-1 Env 246_F3_C10_2, subtype A/C, triplicate, repeated three times, read-out: Cell fusion (IC50±SD)
[17] = HIV-1 Env 398-F1_F6_20, subtype A, triplicate, repeated three times, read-out: Cell fusion (IC50±SD)
[18] = HIV-1 Env BJOX002000.03.2, subtype B/C, triplicate, repeated three times, read-out: Cell fusion (IC50±SD)
[19] = HIV-1 Env CE1176_A3, subtype C, triplicate, repeated three times, read-out: Cell fusion (IC50±SD)
[20] = HIV-1 Env CE703010217_B6, subtype C, triplicate, repeated three times, read-out: Cell fusion (IC50±SD)
[21] = HIV-1 Env CH119.10, subtype B/C, triplicate, repeated three times, read-out: Cell fusion (IC50±SD)
[22] = HIV-1 Env CNE8, subtype A/E, triplicate, repeated three times, read-out: Cell fusion (IC50±SD)
[23] = HIV-1 Env CNE55, subtype A/E, triplicate, repeated three times, read-out: Cell fusion (IC50±SD)
[24] = HIV-1 Env HIV_25710-2.43, subtype C, triplicate, repeated three times, read-out: Cell fusion (IC50±SD)
[25] = HIV-1 Env SF162, subtype B, triplicate, repeated three times, read-out: Cell fusion (IC50±SD)
[26] = HIV-1 Env TRO.11, subtype B, triplicate, repeated three times, read-out: Cell fusion (IC50±SD)
[27] = HIV-1 Env X1632-S2-B10, subtype G, triplicate, repeated three times, read-out: Cell fusion (IC50±SD)
[28] = HIV-1 Env X2278_C2_B6, subtype B, triplicate, repeated three times, read-out: Cell fusion (IC50±SD)
[29] = Mean over 14 primary HIV-1 Envs of Table 1, read-out: Cell fusion, mean IC50 over the panel

Molecule | Cytotoxicity on HEK293T cells [1] | IC50 [2] | Cytotoxicity on TZM-bl cells [3] | IC50 [4] | IC50 [5] | IC50 [6] | IC50 [8, 16] | IC50 [8, 17] | IC50 [8, 18] | IC50 [8, 19] | IC50 [8, 20] | IC50 [8, 21] | IC50 [8, 22] | IC50 [8, 23] | IC50 [8, 24] | IC50 [8, 25] | IC50 [8, 26] | IC50 [8, 27] | Inhibition of HIV-1 [14] | Inhibitory activity against SARS-CoV-2 [15] | also measured
CC[C@H](C)[C@H](NC(=O)[C@H](C)NC(=O)[C@H](CCC(=O)O)NC(=O)[C@H](CCC(=O)O)NC(=O)[C@H](CC(C)C)NC(=O)[C@H](CCCCN)NC(=O)[C@H](CCCCN)NC(=O)[C@H](CCSC)NC(=O)[C@H](CCC(=O)O)NC(=O)[C@H](Cc1ccc(O)cc1)NC(=O)[C@H](CCC(=O)O)NC(=O)[C@H](CC(C)C)NC(=O)[C@H](CC(=O)O)NC(=O)[C@H](CC(C)C)NC(=O)[C@H](Cc1ccccc1)NC(=O)[C@@H](NC(=O)[C@@H](NC(=O)[C@H](CC(N)=O)NC(=O)[C@@H](NC(=O)[C@H](CCC(N)=O)NC(=O)[C@H](CC(=O)O)NC(=O)[C@H](CC(C)C)NC(=O)[C@H](CO)NC(C)=O)[C@@H](C)CC)C(C)C)[C@@H](C)O)C(=O)N[C@@H](CCCCN)C(=O)N[C@@H](CCCCN)C(=O)N[C@@H](CC(C)C)C(=O)N[C@@H](CCC(=O)O)C(=O)N[C@@H](CCC(=O)O)C(=O)N[C@@H](CO)C(=O)N[C@@H](Cc1ccc(O)cc1)C(=O)N[C@H](C(=O)N[C@@H](CC(=O)O)C(=O)N[C@@H](CC(C)C)C(=O)N[C@@H](CCCCN)C(=O)N[C@@H](CCC(=O)O)C(=O)N[C@@H](CC(C)C)C(=O)N[C@@H](CCCCNC(=O)CCC(=O)O[C@H]1CC[C@@]2(C)C(=CC[C@H]3[C@@H]4CC[C@H]([C@H](C)CCCC(C)C)[C@@]4(C)CC[C@@H]32)C1)C(N)=O)[C@@H](C)CC [EK1V1] (Ac-SLDQINVTFLDLEYEMKKLEEAIKKLEESYIDLKELK(Succinyl(4-O-cholesteryl))-NH2; N-terminus and C-terminus assumed) | none of them at a concentration of 10 or 25 μM showed significant cytotoxic effects | > 25000 nM | none of them at a concentration of 10 or 25 μM showed significant cytotoxic effects | 1430 nM | 310 nM | > 25000 nM | 50 ± 10 nM | 170 ± 10 nM | 70 ± 10 nM | 350 ± 100 nM | 40 ± 10 nM | 20 ± 4 nM | 490 ± 90 nM | 130 ± 30 nM | 170 ± 30 nM | 50 ± 10 nM | 680 ± 170 nM | 40 ± 10 nM |  |  | n-fold [7]: 1; IC50 ([7]; 1NL4-3 pseudovirus, 48 h): 39.8 nM; IC50 ([7]; Table 3, […], mean ± SD, triplicate, repeated three times): 40 ± 2 nM; IC50 [8, 28]: 50 ± 4 nM; IC50 [8, 29]: 170 nM; IC50 [9]: > 25000 nM
CC[C@H](C)[C@H](NC(=O)[C@H](C)NC(=O)[C@H](CCC(=O)O)NC(=O)[C@H](CCC(=O)O)NC(=O)[C@H](CC(C)C)NC(=O)[C@H](CCCCN)NC(=O)[C@H](CCCCN)NC(=O)[C@H](CCSC)NC(=O)[C@H](CCC(=O)O)NC(=O)[C@H](Cc1ccc(O)cc1)NC(=O)[C@H](CCC(=O)O)NC(=O)[C@H](CC(C)C)NC(=O)[C@H](CC(=O)O)NC(=O)[C@H](CC(C)C)NC(=O)[C@H](Cc1ccccc1)NC(=O)[C@@H](NC(=O)[C@@H](NC(=O)[C@H](CC(N)=O)NC(=O)[C@@H](NC(=O)[C@H](CCC(N)=O)NC(=O)[C@H](CC(=O)O)NC(=O)[C@H](CC(C)C)NC(=O)[C@H](CO)NC(C)=O)[C@@H](C)CC)C(C)C)[C@@H](C)O)C(=O)N[C@@H](CCCCN)C(=O)N[C@@H](CCCCN)C(=O)N[C@@H](CC(C)C)C(=O)N[C@@H](CCC(=O)O)C(=O)N[C@@H](CCC(=O)O)C(=O)N[C@@H](CO)C(=O)N[C@@H](Cc1ccc(O)cc1)C(=O)N[C@H](C(=O)N[C@@H](CC(=O)O)C(=O)N[C@@H](CC(C)C)C(=O)N[C@@H](CCCCN)C(=O)N[C@@H](CCC(=O)O)C(=O)N[C@@H](CC(C)C)C(N)=O)[C@@H](C)CC [EK1] | none of them at a concentration of 10 or 25 μM showed significant cytotoxic effects | > 25000 nM | none of them at a concentration of 10 or 25 μM showed significant cytotoxic effects | > 12500 nM | > 12500 nM | > 25000 nM | > 5000 nM | > 5000 nM | > 5000 nM | > 5000 nM | > 5000 nM | > 5000 nM | > 5000 nM | > 5000 nM | > 5000 nM | > 5000 nM | > 5000 nM | > 5000 nM |  |  | IC50 [10]: > 12500 nM; Complex formation with gp41 HR1-derived peptides N42, N36, N38 by size-exclusion chromatography [11]: could form peptide complexes; IC50 [12]: > 5000 nM; IC50 ([8]; HIV-1 Env JRFL, subtype B, triplicate, repeated three times, read-out: Cell fusion (IC50±SD)): > 5000 nM; IC50 [8, 28]: > 5000 nM; IC50 [8, 29]: > 5000 nM; IC50 [13]: > 12500 nM; IC50 [9]: > 25000 nM
Enfuvirtide |  |  |  | 390 nM | 480 nM |  |  |  |  |  |  |  |  |  |  |  |  |  | potently inhibited HIV-1 | none was found to have inhibitory activity | 
SLDQINVTFLDLEYEMKKLEEAIKKLEESYIDLKEL-GSGSG-PEG4-C(Chol) [EK1C4] | none of them at a concentration of 10 or 25 μM showed significant cytotoxic effects |  | none of them at a concentration of 10 or 25 μM showed significant cytotoxic effects |  |  |  |  |  |  |  |  |  |  |  |  |  |  |  |  |  | 
albuvirtide |  |  |  |  |  |  |  |  |  |  |  |  |  |  |  |  |  |  | potently inhibited HIV-1 | none was found to have inhibitory activity | 
sifuvirtide |  |  |  |  |  |  |  |  |  |  |  |  |  |  |  |  |  |  | potently inhibited HIV-1 | none was found to have inhibitory activity | 
